Test results published in ChEMBL document CHEMBL2007661, “Compounds: GSK PKIS; Assays: UNC Frye lab” (2012).
Values joined by “and” are separate entries in the source; they are usually repeats but may differ in a detail not shown here. Identical values can stand only once.

Tests used:
Settings in all cases: at 1 µM
[1] = target: T1, Inhibitor of nuclear factor kappa-B kinase subunit beta (Homo sapiens) (UniProt O14920)
T1 sequence (whole entry): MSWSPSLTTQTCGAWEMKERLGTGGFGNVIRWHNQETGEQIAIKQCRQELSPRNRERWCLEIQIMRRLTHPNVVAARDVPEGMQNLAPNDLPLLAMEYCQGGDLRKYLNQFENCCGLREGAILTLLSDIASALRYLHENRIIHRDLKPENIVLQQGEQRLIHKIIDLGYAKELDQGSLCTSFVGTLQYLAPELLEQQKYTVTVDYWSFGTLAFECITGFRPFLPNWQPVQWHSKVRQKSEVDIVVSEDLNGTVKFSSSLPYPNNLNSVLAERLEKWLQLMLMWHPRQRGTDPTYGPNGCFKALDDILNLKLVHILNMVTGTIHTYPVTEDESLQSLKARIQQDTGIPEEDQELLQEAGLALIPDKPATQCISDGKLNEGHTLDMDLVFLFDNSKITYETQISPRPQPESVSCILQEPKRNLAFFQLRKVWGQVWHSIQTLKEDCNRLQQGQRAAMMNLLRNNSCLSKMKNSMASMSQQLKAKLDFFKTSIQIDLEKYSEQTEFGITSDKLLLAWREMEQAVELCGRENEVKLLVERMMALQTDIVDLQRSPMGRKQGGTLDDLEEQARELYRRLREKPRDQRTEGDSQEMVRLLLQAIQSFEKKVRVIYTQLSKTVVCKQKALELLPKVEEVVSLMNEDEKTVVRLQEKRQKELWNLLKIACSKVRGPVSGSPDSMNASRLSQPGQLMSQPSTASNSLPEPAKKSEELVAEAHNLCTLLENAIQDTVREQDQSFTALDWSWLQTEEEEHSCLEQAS

[2] = target: T2, Inhibitor of nuclear factor kappa-B kinase subunit epsilon (Homo sapiens) (UniProt Q14164)
T2 sequence (whole entry): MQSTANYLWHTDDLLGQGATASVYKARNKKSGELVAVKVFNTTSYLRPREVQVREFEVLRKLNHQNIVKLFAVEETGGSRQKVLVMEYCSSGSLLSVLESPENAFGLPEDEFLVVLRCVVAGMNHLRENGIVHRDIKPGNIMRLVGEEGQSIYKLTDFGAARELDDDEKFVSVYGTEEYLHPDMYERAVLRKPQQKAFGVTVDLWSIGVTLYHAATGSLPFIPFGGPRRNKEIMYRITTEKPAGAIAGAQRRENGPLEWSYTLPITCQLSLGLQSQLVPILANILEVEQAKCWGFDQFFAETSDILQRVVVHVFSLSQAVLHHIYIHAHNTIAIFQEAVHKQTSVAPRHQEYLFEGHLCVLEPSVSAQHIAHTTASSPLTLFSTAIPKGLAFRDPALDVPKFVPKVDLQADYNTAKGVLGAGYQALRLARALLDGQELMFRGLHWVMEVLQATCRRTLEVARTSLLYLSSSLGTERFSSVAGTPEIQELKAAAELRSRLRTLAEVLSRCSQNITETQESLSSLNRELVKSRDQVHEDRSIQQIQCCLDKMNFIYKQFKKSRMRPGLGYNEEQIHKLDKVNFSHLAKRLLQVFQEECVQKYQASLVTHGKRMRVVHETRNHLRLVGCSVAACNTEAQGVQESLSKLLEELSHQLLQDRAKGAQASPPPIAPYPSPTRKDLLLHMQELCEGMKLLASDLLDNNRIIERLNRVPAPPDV

[3] = target: T3, Inhibitor of nuclear factor kappa-B kinase subunit alpha (Homo sapiens) (UniProt O15111)
T3 sequence (whole entry): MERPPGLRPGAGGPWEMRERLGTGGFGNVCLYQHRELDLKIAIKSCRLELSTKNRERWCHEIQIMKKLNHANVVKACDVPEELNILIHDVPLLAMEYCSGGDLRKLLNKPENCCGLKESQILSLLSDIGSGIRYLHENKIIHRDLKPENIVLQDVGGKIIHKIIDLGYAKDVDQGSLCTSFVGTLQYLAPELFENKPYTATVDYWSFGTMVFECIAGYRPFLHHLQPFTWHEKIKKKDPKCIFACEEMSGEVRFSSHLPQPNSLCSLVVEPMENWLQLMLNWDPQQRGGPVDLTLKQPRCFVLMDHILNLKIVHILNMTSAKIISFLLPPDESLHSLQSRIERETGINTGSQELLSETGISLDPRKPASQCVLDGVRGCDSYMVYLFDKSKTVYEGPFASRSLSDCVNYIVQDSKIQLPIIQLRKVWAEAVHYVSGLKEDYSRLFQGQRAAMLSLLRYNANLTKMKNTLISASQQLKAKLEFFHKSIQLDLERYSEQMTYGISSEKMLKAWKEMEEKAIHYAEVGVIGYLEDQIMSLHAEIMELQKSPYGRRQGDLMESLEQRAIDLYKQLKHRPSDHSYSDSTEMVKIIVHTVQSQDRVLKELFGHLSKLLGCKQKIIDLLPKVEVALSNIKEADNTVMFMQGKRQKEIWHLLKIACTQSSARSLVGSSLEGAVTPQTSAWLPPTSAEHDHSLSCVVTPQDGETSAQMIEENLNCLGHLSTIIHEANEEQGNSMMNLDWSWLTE

Row | SMILES | inhibition [1] | inhibition [2] | inhibition [3]
1 | NCc1ccc(-n2c(-c3nonc3N)nc3cnccc32)cc1 | -6% and -2% | 2% | 40% and 38%
2 | COc1cc(C)c(N(C)C(=O)CN(C)C)cc1Nc1nc(Nc2cccc(F)c2C(N)=O)c2cc[nH]c2n1 | -3% and -6% | -3% and -2% | 4% and 3%
3 | O=S(=O)(CCNCc1ccc(-c2ccc3ncnc(Nc4ccc(OCc5cccc(F)c5)c(Cl)c4)c3c2)o1)c1ccccc1 | 0% and -2% | -2% and -1% | 4% and 12%
4 | Nc1nccc(-c2c(-c3ccc(F)cc3)nn3cc(C(F)(F)F)ccc23)n1 | -2% and -4% | 2% | 1% and 0%
5 | NS(=O)(=O)c1ccc(Nc2cc(-c3ccc(O)c(F)c3)n[nH]2)cc1 | -2% and -1% | 4% and 3% | 1% and -1%
6 | CN(c1ccc(NC(=O)NCCN2CCOCC2)cc1)c1ccnc(Nc2ccc(CS(C)(=O)=O)cc2)n1 | 2% and -2% | 2% and 5% | 1%
7 | CNC(=O)c1ncccc1Nc1nc(Nc2cc3c(cc2OC)CCCN3C(=O)CN(C)C)nc2[nH]ccc12 | -5% and -3% | 0% and 5% | 6% and 5%
8 | O=C1NC(=O)C(N2CCc3ccccc32)=C1c1ccc(Cl)cc1 | 3% and 2% | 1% | 8% and 9%
9 | COc1cc(C=NNc2ncnc3c2cnn3-c2ccccc2)ccc1O | 2% | 13% and 11% | 12% and 15%
10 | O=C(Nc1ccc(Oc2ccc3[nH]c(NC(=O)c4ccccc4)nc3c2)cc1)Nc1cc(C(F)(F)F)ccc1F | -2% and 2% | 6% and 5% | 11%
11 | COC(=O)Nc1nc2cc(Oc3cccc(NC(=O)Nc4cc(C(F)(F)F)ccc4F)c3)ccc2[nH]1 | 0% and 5% | -1% and -2% | 0% and 2%
12 | CCn1c(-c2nonc2N)nc2cnc(Oc3cccc(NC(=O)c4ccc(N(C)C)cc4)c3)cc21 | -1% and -2% | 31% | 5% and 9%
13 | NS(=O)(=O)c1ccc(N/N=C2\C(=O)Nc3ccc(C(=O)NCCCn4ccnc4)cc32)cc1 | -1% | 27% | -3% and -4%
14 | CS(=O)(=O)CCNCc1ccc(-c2ccc3ncnc(Nc4ccc(OCc5ccccc5)c(C(F)(F)F)c4)c3c2)o1 | -5% and -3% | -2% and -1% | 1% and -1%
15 | OCc1ccc(-c2nc(-c3ccccn3)c(-c3ccc4c(c3)OCO4)[nH]2)cc1 | -4% and -3% | -2% | 14% and 7%
16 | CNC(=O)c1cncc(/C=C/c2ccccc2C)c1 | -1% and -3% | 3% and 1% | 4% and -3%
17 | COc1cc(/C=N/Nc2ncnc3c2cnn3C(C)C)ccc1O | 4% and 0% | 0% and -3% | -3% and 1%
18 | COc1cc(Nc2ncc3c(C)nc(-c4cccc(C(F)(F)F)c4)n3n2)cc(OC)c1OC | -4% and -5% | 29% and 33% | 4% and 2%
19 | COc1cc(C)c(NC(=O)CN(C)C)cc1Nc1nc(Nc2cccc(F)c2C(N)=O)c2cc[nH]c2n1 | -1% and 18% | 9% and 8% | 2% and 3%
20 | c1ccc(-c2nc3n(c2-c2ccc4c(c2)OCO4)CCC3)nc1 | -5% and -3% | 1% and 2% | 2% and 0%
21 | C[C@@H](Oc1cc(-n2cnc3ccc(OCC4CCN(C)CC4)cc32)sc1C(N)=O)c1ccccc1C(F)(F)F | -2% and 0% | 2% and 4% | 3%
22 | COc1cccc(-n2ncc3c(N/N=C/c4cccc(F)c4)ncnc32)c1 | -7% and -5% | -1% and 0% | 1% and 0%
23 | CCN1CCC(CC(=O)Nc2n[nH]c3nc(-c4cccs4)c(Br)cc23)CC1 | -4% and -3% | 2% and 1% | -9% and 5%
24 | Cc1nn(C)c2cc(N(C)c3ccnc(Nc4cccc(S(N)(=O)=O)c4)n3)ccc12 | -2% and 4% | 2% | -8% and 0%
25 | CC(C)(CO)CNC(=O)c1ccc2c(c1)/C(=N/Nc1ccc(S(N)(=O)=O)cc1)C(=O)N2 | -2% | 77% and 76% | -7% and 1%
26 | COC(=O)Nc1nc2ccc(S(=O)(=O)c3ccc(NC(=O)Nc4cc(C(F)(F)F)ccc4F)cc3)cc2[nH]1 | -6% and -5% | -1% and -2% | 2% and 3%
27 | Cc1ccc2c(-c3ccnc(Nc4ccccc4)n3)c(-c3ccc(F)cc3)nn2n1 | -1% and -4% | -1% and 0% | 2% and 1%

Other lines, results leading:

Row | inhibition [1] | inhibition [2] | inhibition [3] | SMILES
28 | -2% and -4% | 2% and 0% | 2% and 9% | COc1cc(N2CCN(C(C)C)CC2)ccc1Nc1nc(Nc2cccc3ncccc23)c2cc[nH]c2n1
29 | 0% and -2% | -2% and -1% | -1% and 3% | Cc1nnc(-c2ccc(C)c(-c3ccc(C(=O)Nc4cccc(C#N)c4)cc3)c2)o1
30 | -1% and 0% | 65% | 0% | NS(=O)(=O)c1ccc(N/N=C2\C(=O)Nc3ccc(C(=O)NCc4ccncc4)cc32)cc1
31 | -3% and -4% | -1% and 4% | 3% | CC1(C)CC(n2cnc(-c3ccc(F)cc3)c2-c2ccnc(N)n2)CC(C)(C)N1
32 | -1% and -4% | -2% and -1% | -1% and -3% | CS(=O)(=O)Nc1ccc(-c2cc(-c3ccccc3)cc(C(N)=O)c2N)cc1
33 | -3% and 2% | 11% and 21% | 29% and 33% | Nc1nonc1-c1nc2cnccc2n1C1CC1
34 | -6% and -5% | -3% and -4% | 3% and 2% | CCn1c(-c2nonc2N)nc2c(N3CCCC3)nccc21
35 | -4% and -10% | 15% and 11% | 2% and -1% | CC(C)c1ccc(Nc2nccc(-c3cnn4ncccc34)n2)cc1
36 | -7% | 5% and 3% | 5% | NS(=O)(=O)c1ccc(N/N=C2\C(=O)Nc3cccc(CCc4ccncc4)c32)cc1
37 | -2% and 4% | 8% and 6% | 3% and 0% | CCCN1CCC(c2ccc(Nc3nc(Nc4cc(F)ccc4C(N)=O)c4cc[nH]c4n3)c(OC)c2)CC1
38 | 3% and 2% | 3% and 1% | -8% and -5% | Cc1cc(O)cc(C)c1/C=C/c1cncc(C(=O)N(C)C)c1
39 | -2% and -6% | -1% and 0% | 2% and 0% | COc1ccc(C2=C(N3CCc4ccccc43)C(=O)NC2=O)cc1
40 | -4% | 0% and -1% | -1% and 0% | c1ccc(Nc2ncc(-c3ccccc3)o2)cc1
41 | -4% and -1% | -4% | 2% and 4% | Cc1cccc(-c2n[nH]cc2-c2ccc3ncccc3n2)n1
42 | 2% | 0% and 1% | 6% and -8% | CC1=C(C(=O)Nc2ccc3[nH]ncc3c2)C(c2ccc(Cl)c(Cl)c2)CC(=O)N1 (stereo unspecified)
